# Laboratory results reported in ChEMBL document CHEMBL1201862, “PubChem BioAssay data set” (2004).
#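 Values below derive from 48-hour exposures of cells grown in 96-well plates, with endpoints linearly interpolated between the two concentrations bracketing the appropriate inhibition level. GI50 is the concentration that inhibits growth by half.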 The source made the active and inactive calls. Rule as the data show it: active = GI50 up to about 1.1 µM and inactive = higher. Where a SMILES comes first, the peptide text is derived from it. [ ]: non-standard residue; d: D form. The star is where a group is joined. Phe(4-NO2) = N[CH](Cc1ccc([N+](=O)[O-])cc1)C(=O)O; Boc = CC(C)(C)OC(=O)*
# What was measured:
# Test in all cases: inhibition of tumour cell growth, NCI panel, 48 h
# [1] = system: NCI-H226
# [2] = system: SF-295
# [3] = system: A549
# [4] = system: SW-620
# [5] = system: NCI-H23
# [6] = system: IGROV-1
# [7] = system: U-251
# [8] = system: SR
# [9] = system: MDA-MB-231
# [10] = system: Hs-578T
# [11] = system: UACC-62
# [12] = system: DU-145
# [13] = system: OVCAR-8
# [14] = system: KM12
# [15] = system: SN12C
# [16] = system: EKVX
# [17] = system: 786-0
# [18] = system: TK-10
# [19] = system: SK-MEL-28
# [20] = system: T47D
SMILES,GI50 [1],GI50 [2],GI50 [3],GI50 [4],GI50 [5],GI50 [6],GI50 [7],GI50 [8],GI50 [9],GI50 [10],GI50 [11],GI50 [12],GI50 [13],GI50 [14],GI50 [15],GI50 [16],GI50 [17],GI50 [18],GI50 [19],GI50 [20]
COc1cc(C2C3=C(COC3=O)Oc3cc4c(cc32)OCO4)cc(OC)c1OC(C)=O (stereo not drawn),< 0.0376 µM (active),0.0316 µM (active),0.0462 µM (active),0.0202 µM (active),0.0233 µM (active),0.0239 µM (active),0.0388 µM (active),0.0406 µM (active),0.038 µM (active),0.0101 µM (active),< 0.01 µM (active),0.0381 µM (active),0.0316 µM (active),0.0135 µM (active),0.619 µM (active),0.0435 µM (active),0.0186 µM (active),0.966 µM (active),,
CCCNC1=Nc2ccccc2NC(C)C1 (stereo not drawn),> 100 µM (inactive),> 100 µM (inactive),> 100 µM (inactive),> 100 µM (inactive),> 100 µM (inactive),> 100 µM (inactive),> 100 µM (inactive),,> 100 µM (inactive),> 100 µM (inactive),> 100 µM (inactive),> 100 µM (inactive),> 100 µM (inactive),> 100 µM (inactive),> 100 µM (inactive),> 100 µM (inactive),> 100 µM (inactive),> 100 µM (inactive),> 100 µM (inactive),
C=C(CCC/C(C)=C/C=C/[C@@H](C)CCCc1ccoc1)C[C@@H]1OC(=O)[C@H](C)[C@@H]1O,6.43 µM (inactive),7.6 µM (inactive),7.29 µM (inactive),11.4 µM (inactive),8.09 µM (inactive),10.7 µM (inactive),11 µM (inactive),10.7 µM (inactive),7.48 µM (inactive),,5.27 µM (inactive),10.6 µM (inactive),10.1 µM (inactive),7.24 µM (inactive),9.68 µM (inactive),9.2 µM (inactive),10.8 µM (inactive),13.1 µM (inactive),10.1 µM (inactive),8.36 µM (inactive)
c1ccc2sc(C3(N4CCCCC4)CCCC3)cc2c1,1.79 µM (inactive),11 µM (inactive),5.43 µM (inactive),8.02 µM (inactive),4.06 µM (inactive),10.6 µM (inactive),,0.838 µM (active),,14.1 µM (inactive),15.5 µM (inactive),11.3 µM (inactive),10.4 µM (inactive),7.01 µM (inactive),13.5 µM (inactive),7.14 µM (inactive),9.93 µM (inactive),13.6 µM (inactive),14.6 µM (inactive),
Nc1ccc(Oc2ccc(C3(c4ccc(Oc5ccc(N)c(O)c5)cc4)C4CC5C6CC7CC5C3C(C7)C6C4)cc2)cc1O,2.72 µM (inactive),2.77 µM (inactive),1.56 µM (inactive),2.18 µM (inactive),2.47 µM (inactive),2.2 µM (inactive),1.81 µM (inactive),2.25 µM (inactive),1.89 µM (inactive),3.13 µM (inactive),4.02 µM (inactive),1.86 µM (inactive),1.8 µM (inactive),1.86 µM (inactive),1.55 µM (inactive),1.38 µM (inactive),1.73 µM (inactive),3.15 µM (inactive),,
O=C(O/N=c1/ccc(=O)/c(=N\OC(=O)c2ccccc2)c1=O)c1ccccc1,> 100 µM (inactive),> 100 µM (inactive),> 100 µM (inactive),> 100 µM (inactive),> 100 µM (inactive),89.3 µM (inactive),> 100 µM (inactive),> 100 µM (inactive),,> 100 µM (inactive),,,> 100 µM (inactive),> 100 µM (inactive),> 100 µM (inactive),> 100 µM (inactive),> 100 µM (inactive),> 100 µM (inactive),> 100 µM (inactive),> 100 µM (inactive)
O=c1c2ccccc2[nH]c2c(Cl)cc(Cl)c(NC3CCCCC3)c12,21.6 µM (inactive),24.2 µM (inactive),29.9 µM (inactive),22.6 µM (inactive),17 µM (inactive),18.2 µM (inactive),16.7 µM (inactive),12 µM (inactive),29 µM (inactive),,16.6 µM (inactive),,20.7 µM (inactive),14.8 µM (inactive),24.4 µM (inactive),23 µM (inactive),31.3 µM (inactive),22.2 µM (inactive),27 µM (inactive),31.1 µM (inactive)
CCCCC1Nc2ccccc2-c2ccnc(Cl)c21 (stereo not drawn),17.6 µM (inactive),21.5 µM (inactive),28.1 µM (inactive),21.2 µM (inactive),16.5 µM (inactive),19 µM (inactive),21.4 µM (inactive),18.7 µM (inactive),17.1 µM (inactive),15 µM (inactive),13.7 µM (inactive),20.5 µM (inactive),,20.7 µM (inactive),20.8 µM (inactive),24.2 µM (inactive),19.5 µM (inactive),33 µM (inactive),17.8 µM (inactive),
CSC1=Nc2ccccc2-c2nc(-c3ccccc3)cc(-c3ccccc3)c2C1,87.9 µM (inactive),13.6 µM (inactive),16 µM (inactive),15.7 µM (inactive),12.4 µM (inactive),10 µM (inactive),7.03 µM (inactive),31.3 µM (inactive),14.2 µM (inactive),,9.77 µM (inactive),60.4 µM (inactive),9.98 µM (inactive),24.9 µM (inactive),28.2 µM (inactive),23.1 µM (inactive),10.2 µM (inactive),16.2 µM (inactive),35.6 µM (inactive),10.4 µM (inactive)
Cc1c(N2C(=O)C(Cl)C2/C=C/c2ccccc2)c(=O)n(-c2ccccc2)n1C (stereo not drawn),25.1 µM (inactive),22.1 µM (inactive),26.4 µM (inactive),24.2 µM (inactive),7.59 µM (inactive),17.1 µM (inactive),6.22 µM (inactive),17.5 µM (inactive),25.4 µM (inactive),,14.9 µM (inactive),34.6 µM (inactive),22.1 µM (inactive),12.7 µM (inactive),20.4 µM (inactive),6.41 µM (inactive),24.9 µM (inactive),14.3 µM (inactive),,19.8 µM (inactive)
CCN1CCCC(C#N)(c2ccccc2)CC1 (stereo not drawn),,> 100 µM (inactive),> 100 µM (inactive),> 100 µM (inactive),> 100 µM (inactive),> 100 µM (inactive),> 100 µM (inactive),> 100 µM (inactive),,61.7 µM (inactive),,> 100 µM (inactive),> 100 µM (inactive),> 100 µM (inactive),,> 100 µM (inactive),> 100 µM (inactive),> 100 µM (inactive),> 100 µM (inactive),> 100 µM (inactive)
O=C(NNCc1ccccc1O)c1ccccc1O,24 µM (inactive),2.51 µM (inactive),8.13 µM (inactive),3.48 µM (inactive),9.84 µM (inactive),1.13 µM (inactive),5.75 µM (inactive),,> 100 µM (inactive),,5.42 µM (inactive),3.22 µM (inactive),14.4 µM (inactive),8.91 µM (inactive),4.03 µM (inactive),5.89 µM (inactive),11 µM (inactive),31.4 µM (inactive),8.41 µM (inactive),3.48 µM (inactive)
CCOC(=O)CCC(NC(=O)C(Cc1ccc([N+](=O)[O-])cc1)NC(=O)OC(C)(C)C)C(=O)NC(CCC(=O)OCC)C(=O)OCC (stereo not drawn) (Boc-[Phe(4-NO2)]-Glu(OEt)-Glu(OEt)-OEt; configuration not given here),16.8 µM (inactive),,38.5 µM (inactive),17.9 µM (inactive),17.9 µM (inactive),20.3 µM (inactive),19.8 µM (inactive),2.87 µM (inactive),27 µM (inactive),18.7 µM (inactive),16.8 µM (inactive),,18.5 µM (inactive),11.7 µM (inactive),22.3 µM (inactive),> 10 µM (inactive),16.8 µM (inactive),15.5 µM (inactive),15.6 µM (inactive),
C[C@@H]1C[C@@H]([C@H](O)CC2CC(=O)NC(=O)C2)C(=O)[C@@H](C)C1 [CYCLOHEXIMIDE],0.219 µM (active),0.142 µM (active),0.0366 µM (active),0.0462 µM (active),0.0516 µM (active),0.0532 µM (active),0.0603 µM (active),0.0416 µM (active),,,0.118 µM (active),,0.044 µM (active),0.0202 µM (active),0.0199 µM (active),0.0933 µM (active),0.0372 µM (active),0.0865 µM (active),0.0352 µM (active),
O=C1CCC(N2C(=O)c3ccccc3C2=O)C(=O)N1 (stereo not drawn) [THALIDOMIDE],,> 100 µM (inactive),> 100 µM (inactive),> 100 µM (inactive),> 100 µM (inactive),> 100 µM (inactive),> 100 µM (inactive),> 100 µM (inactive),,> 100 µM (inactive),> 100 µM (inactive),> 100 µM (inactive),> 100 µM (inactive),> 100 µM (inactive),> 100 µM (inactive),> 100 µM (inactive),> 100 µM (inactive),,,> 100 µM (inactive)
